Laboratory results published in the NIST ThermoML archive (doi:10.1021/je100693c).

Tests used:
[1] = xn = mol fraction of the nth substance listed; settings: 101 kPa, Liquid, Vibrating tube method
[2] = excess molar enthalpy (molar enthalpy of mixing); xn = mol fraction of the nth substance listed; settings: 101 kPa, Liquid

OCC(F)(F)F [2,2,2-trifluoroethanol] + CCCCn1cc[n+](C)c1.F[B-](F)(F)F
Settings | excess molar enthalpy [kcal/mol] | mass density [kg/m3]
[1], 283.15 K, x2 = 0 | – | 1408.2
[1], 283.15 K, x2 = 0.1032 | – | 1360.8
[1], 283.15 K, x2 = 0.2129 | – | 1322.2
[1], 283.15 K, x2 = 0.299 | – | 1299.8
[1], 283.15 K, x2 = 0.4022 | – | 1279.1
[1], 283.15 K, x2 = 0.5028 | – | 1262.9
[1], 283.15 K, x2 = 0.5808 | – | 1252.3
[1], 283.15 K, x2 = 0.6912 | – | 1239.6
[1], 283.15 K, x2 = 0.8062 | – | 1228.5
[1], 283.15 K, x2 = 0.8945 | – | 1221.2
[1], 293.15 K, x2 = 0 | – | 1391.1
[1], 293.15 K, x2 = 0.1032 | – | 1346.9
[1], 293.15 K, x2 = 0.2129 | – | 1310.1
[1], 293.15 K, x2 = 0.299 | – | 1288.8
[1], 293.15 K, x2 = 0.4022 | – | 1269
[1], 293.15 K, x2 = 0.5028 | – | 1253.4
[1], 293.15 K, x2 = 0.5808 | – | 1243.3
[1], 293.15 K, x2 = 0.6912 | – | 1231.2
[1], 293.15 K, x2 = 0.8062 | – | 1220.5
[1], 293.15 K, x2 = 0.8945 | – | 1213.3
[1], 303.15 K, x2 = 0 | – | 1373.8
[1], 303.15 K, x2 = 0.1032 | – | 1332.9
[1], 303.15 K, x2 = 0.2129 | – | 1298.1
[1], 303.15 K, x2 = 0.299 | – | 1277.9
[1], 303.15 K, x2 = 0.4022 | – | 1259.1
[1], 303.15 K, x2 = 0.5028 | – | 1244.3
[1], 303.15 K, x2 = 0.5808 | – | 1234.6
[1], 303.15 K, x2 = 0.6912 | – | 1223.1
[1], 303.15 K, x2 = 0.8062 | – | 1212.8
[1], 303.15 K, x2 = 0.8945 | – | 1205.8
[1], 313.15 K, x2 = 0 | – | 1356.1
[1], 313.15 K, x2 = 0.1032 | – | 1319
[1], 313.15 K, x2 = 0.2129 | – | 1286.1
[1], 313.15 K, x2 = 0.299 | – | 1267
[1], 313.15 K, x2 = 0.4022 | – | 1249.4
[1], 313.15 K, x2 = 0.5028 | – | 1235.2
[1], 313.15 K, x2 = 0.5808 | – | 1226
[1], 313.15 K, x2 = 0.6912 | – | 1215
[1], 313.15 K, x2 = 0.8062 | – | 1205.1
[1], 313.15 K, x2 = 0.8945 | – | 1198.3
[1], 323.15 K, x2 = 0 | – | 1338
[1], 323.15 K, x2 = 0.1032 | – | 1304.9
[1], 323.15 K, x2 = 0.2129 | – | 1274.3
[1], 323.15 K, x2 = 0.299 | – | 1256.4
[1], 323.15 K, x2 = 0.4022 | – | 1239.7
[1], 323.15 K, x2 = 0.5028 | – | 1226.4
[1], 323.15 K, x2 = 0.5808 | – | 1217.5
[1], 323.15 K, x2 = 0.6912 | – | 1207
[1], 323.15 K, x2 = 0.8062 | – | 1197.6
[1], 323.15 K, x2 = 0.8945 | – | 1190.9
[1], 333.15 K, x2 = 0 | – | 1319.1
[1], 333.15 K, x2 = 0.1032 | – | 1290.6
[1], 333.15 K, x2 = 0.2129 | – | 1262.4
[1], 333.15 K, x2 = 0.299 | – | 1245.8
[1], 333.15 K, x2 = 0.4022 | – | 1230
[1], 333.15 K, x2 = 0.5028 | – | 1217.4
[1], 333.15 K, x2 = 0.5808 | – | 1209
[1], 333.15 K, x2 = 0.6912 | – | 1199.1
[1], 333.15 K, x2 = 0.8062 | – | 1190.1
[1], 333.15 K, x2 = 0.8945 | – | 1183.6
[2], 298.15 K, x2 = 0.0878 | 0.174 | –
[2], 298.15 K, x2 = 0.1614 | 0.279 | –
[2], 298.15 K, x2 = 0.2042 | 0.305 | –
[2], 298.15 K, x2 = 0.2779 | 0.318 | –
[2], 298.15 K, x2 = 0.3392 | 0.302 | –
[2], 298.15 K, x2 = 0.3908 | 0.289 | –
[2], 298.15 K, x2 = 0.435 | 0.273 | –
[2], 298.15 K, x2 = 0.5065 | 0.238 | –
[2], 298.15 K, x2 = 0.6581 | 0.162 | –
[2], 298.15 K, x2 = 0.6919 | 0.145 | –
[2], 298.15 K, x2 = 0.7549 | 0.119 | –
[2], 298.15 K, x2 = 0.8089 | 0.0909 | –
[2], 298.15 K, x2 = 0.9059 | 0.0403 | –
[2], 323.15 K, x2 = 0.0459 | 0.0433 | –
[2], 323.15 K, x2 = 0.1137 | 0.113 | –
[2], 323.15 K, x2 = 0.2042 | 0.168 | –
[2], 323.15 K, x2 = 0.2779 | 0.179 | –
[2], 323.15 K, x2 = 0.3461 | 0.173 | –
[2], 323.15 K, x2 = 0.435 | 0.154 | –
[2], 323.15 K, x2 = 0.5359 | 0.128 | –
[2], 323.15 K, x2 = 0.6062 | 0.108 | –
[2], 323.15 K, x2 = 0.6978 | 0.079 | –
[2], 323.15 K, x2 = 0.822 | 0.0433 | –
[2], 323.15 K, x2 = 0.885 | 0.0286 | –
